Experimental data from patent publication US20240287052A1, “NOVEL OXAZOLE DERIVATIVE AND PHARMACEUTICAL COMPOSITION FOR PREVENTING OR TREATING ALLERGIC DISEASES COMPRISING THE SAME” (AZCURIS CO., LTD., priority 2021, published 2024).
Read-outs that look alike come from different tables or passages of the source.

Columns and labels:
[1] = tested on: IL-6 secretion in the human mast cell line HMC 1.1; assay: IL-6 production inhibition assay (IL-33 stimulated HMC 1.1 cells, IL-6 ELISA); assay type: cell-based; conditions: for inhibition at 1 µM: 1 μM compound, read-out: Inhibition of hIL-6 production (%) 1 μM; for inhibition at 1 µM / inhibition at 10 µM / inhibition at 0.1 µM: 24 hours; for inhibition at 10 µM: 10 μM compound, read-out: Inhibition of hIL-6 production (%) 10 μM; for inhibition at 0.1 µM: 0.1 μM compound, read-out: Inhibition of hIL-6 production (%) 0.1 μM; for EC50: read-out: Inhibition of hIL-6 production EC50
Summary of the method: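 HMC 1.1 cells stimulated with 200 nM recombinant human IL-33 were exposed 24 hours to compound at 10 μM, 25 μM, 30 μM or 50 μM, among other levels. Secreted IL-6 was quantified by ELISA in triplicate against a standard curve and expressed as % of vehicle.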

[2] = Cellular viability, WST-8 assay, without or with human liver microsomes; assay type: cell-based
Procedure: (§1) Human liver cancer cell line HepG2 cells were cultured in a medium (high glucose Dulbecco's Modified Eagle Medium, DMEM, HyClone) supplemented with 10% fetal bovine serum (FBS, HyClone) and 1% antibiotic in a thermostat maintained at 37° C. with 5% CO2.
(§2) HepG2 cells, which are adherent cells, were […] or presence of human liver microsomes (Gibco) and NADPH regenerating system.
(§3) Cell cultures were exchanged using […] of medium (high glucose Dulbecco's Modified Eagle Medium, DMEM, HyClone) and incubated for 24 hours.
(§4) After adding 10 μL of WST-8 (abCam), the absorbance was obtained at 460 nm after 5 seconds of orbital shaking with a microplate reader (Tecan, Spark©) 2 hours later.
(§5) The mean of the three values obtained in triplicate was calculated and expressed as % cellular viability compared to vehicle treatment.

[3] = tested on: Human liver cancer cell line HepG2 cells; assay: as above; assay type: cell-based; conditions: for Cellular viability (%) (+) microsome: HepG2, with human liver microsomes; for Cellular viability (%) (−) microsome: HepG2, without human liver microsomes
Procedure: as §1, §2, §3, §4, §5

IL33 and ST2 binding [4] = biological target: T1, IL33 and ST2 binding (Homo sapiens, UniProt O95760);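 note: plate ELISA with coated Flag-tagged human IL-33 and His-tagged human ST2, bound ST2 detected by anti-His HRP and TMB absorbance at 450 nm, 2 h compound incubation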
T1 sequence (O95760 112-270 limits assumed): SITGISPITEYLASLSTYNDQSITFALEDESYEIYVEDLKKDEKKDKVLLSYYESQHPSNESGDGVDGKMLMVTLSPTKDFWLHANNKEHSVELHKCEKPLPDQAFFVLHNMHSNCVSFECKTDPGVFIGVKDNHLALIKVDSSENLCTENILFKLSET

IL33 and ST2 binding [5] = biological target: T1, IL33 and ST2 binding; assay: biochemical
[6] = HepG2, with human liver microsomes, read-out: CC50 (μM) (+) microsome
[7] = HepG2 cells, HepG2, without human liver microsomes, read-out: CC50 (μM) (−) microsome

Compound	inhibition at 1 µM [1]	inhibition at 10 µM [1]	CC50 at 24 h [2, 6]	CC50 at 24 h [2, 7]	Cellular viability (%) (+) microsome ([3]; at 100 μM)	Cellular viability (%) (−) microsome ([3]; at 100 μM)	inhibition (IL33 and ST2 binding [4]; 30 µM)	inhibition (IL33 and ST2 binding [4]; 100 µM)	IC50 (IL33 and ST2 binding [5])	inhibition at 0.1 µM [1]	EC50 [1]	Cellular viability (%) (+) microsome ([3]; at 160 μM)	Cellular viability (%) (−) microsome ([3]; at 160 μM)	Cellular viability (%) (+) microsome ([3]; at 135 μM)	Cellular viability (%) (−) microsome ([3]; at 135 μM)
CCOC(=O)c1nc(-c2ccc(C(F)(F)F)cc2)oc1-c1cccc([N+](=O)[O-])c1 [Compound 33, Ethyl 5-(3-nitrophenyl)-2-(4-(trifluoromethyl)phenyl)oxazole-4-carboxylate]	30%	32%	43.5 µM	67 µM	68 at %	73 at %	107%	108%	1710 nM						
CCNC(=O)c1nc(-c2ccc(C(F)(F)F)cc2)oc1-c1cccc(SC)c1 [Compound 291, N-Ethyl-5-(3-(methylthio)phenyl)-2-(4-(trifluoromethyl)phenyl)oxazole-4-carboxamide]	40%	66%					112%	111%	640 nM	25%	490 nM	102 at %	106 at %		
CCNC(=O)c1nc(-c2ccc(C(F)(F)F)cc2)oc1-c1cccnc1 [Compound 307, N-Ethyl-5-(pyridin-3-yl)-2-(4-(trifluoromethyl)phenyl)oxazole-4-carboxamide]	69%	79%					106%			61%	110 nM	108 at %	105 at %		
CCOC(=O)c1nc(-c2ccc(C(F)(F)F)cc2)oc1-c1ccccc1OC(F)(F)F [Compound 52, Ethyl 5-(2-(trifluoromethoxy)phenyl)-2-(4-(trifluoromethyl)phenyl)oxazole-4-carboxylate]	22%	48%			97 at %	117 at %	115%	115%	7990 nM		2260 nM				
CCOC(=O)c1nc(-c2ccc(C(F)(F)F)cc2)oc1-c1cccc(C#N)c1 [Compound 55, Ethyl 5-(3-cyanophenyl)-2-(4-(trifluoromethyl)phenyl)oxazole-4-carboxylate]	45%	52%			91 at %	90 at %	115%	116%			90 nM				
CCOC(=O)c1nc(-c2ccc(C(F)(F)F)cc2)oc1-c1ccccc1OC [Compound 44, Ethyl 5-(2-methoxyphenyl)-2-(4-(trifluoromethyl)phenyl)oxazole-4-carboxylate]	38%	77%			99 at %	68 at %	100%		1260 nM		2560 nM				
CCCNC(=O)c1nc(-c2ccc(C(F)(F)F)cc2)oc1-c1cccc(SC)c1 [Compound 292, 5-(3-(Methylthio)phenyl)-N-propyl-2-(4-(trifluoromethyl)phenyl)oxazole-4-carboxamide]	39%	42%					110%	112%	1130 nM	29%	90 nM			58 at %	55 at %
CNC(=O)c1nc(-c2ccc(C(F)(F)F)cc2)oc1-c1cccc(SC)c1 [Compound 290, N-Methyl-5-(3-(methylthio)phenyl)-2-(4-(trifluoromethyl)phenyl)oxazole-4-carboxamide]	49%	59%					112%	112%	4510 nM	28%				60 at %	47 at %
CCOC(=O)c1nc(-c2ccc(Cl)c(C(F)(F)F)c2)oc1-c1ccccc1 [Compound 98, Ethyl 2-(4-chloro-3-(trifluoromethyl)phenyl)-5-phenyloxazole-4-carboxylate]	-12%	30%			90 at %	83 at %	110%	110%	5210 nM						
CCNC(=O)c1nc(-c2ccc(C(F)(F)F)cc2)oc1-c1ccccc1 [Compound 294, N-Ethyl-5-phenyl-2-(4-(trifluoromethyl)phenyl)oxazole-4-carboxamide]	88%	94%					95%			50%	130 nM	90 at %	95 at %		
CCOC(=O)c1nc(-c2ccc(SC)cc2)oc1-c1ccccc1 [Compound 90, Ethyl 2-(4-(methylthio)phenyl)-5-phenyloxazole-4-carboxylate]	54%	55%	40.8 µM	14 µM						33%	490 nM			74 at %	53 at %
CCOC(=O)c1nc(-c2cccc(Cl)c2)oc1-c1ccccc1 [Compound 75, Ethyl 2-(3-chlorophenyl)-5-phenyloxazole-4-carboxylate]	5%	26%			100 at %	106 at %	93%	108%	11700 nM						
CN1CCN(CCNC(=O)c2nc(-c3cc(F)cc(F)c3)oc2-c2ccccc2[N+](=O)[O-])CC1 [Compound 238, 2-(3,5-Difluorophenyl)-N-(2-(4-methylpiperazin-1-yl)ethyl)-5-(2-nitrophenyl)oxazole-4-carboxamide]	14%	45%	21.3 µM	19 µM	53 at %	49 at %	40%	103%			6300 nM				
CCOC(=O)c1nc(-c2ccc(C(F)(F)F)cc2)oc1-c1ccc([N+](=O)[O-])cc1 [Compound 34, Ethyl 5-(4-nitrophenyl)-2-(4-(trifluoromethyl)phenyl)oxazole-4-carboxylate]					85 at %	87 at %	108%	108%	910 nM						
CN(C)CCNC(=O)c1nc(-c2cccc(Cl)c2)oc1-c1ccccc1 [Compound 240, 2-(3-Chlorophenyl)-N-(2-(dimethylamino)ethyl)-5-phenyloxazole-4-carboxamide]	6%	44%	6.36 µM	5.46 µM	50 at %	45 at %	7%	70%			3700 nM				
CCNC(=O)c1nc(-c2ccc(SC)cc2)oc1-c1ccccc1 [Compound 316, N-Ethyl-2-(4-(methylthio)phenyl)-5-phenyloxazole-4-carboxamide]	69%	77%					47%			25%	350 nM	100 at %	84 at %		
CCOC(=O)c1nc(-c2ccc(C(F)(F)F)cc2)oc1-c1ccccc1 [Compound 31, Ethyl 5-phenyl-2-(4-(trifluoromethyl)phenyl)oxazole-4-carboxylate]	56%	69%					110%	109%	780 nM	46%	230 nM			66 at %	83 at %
CSc1ccc(-c2nc(C(=O)NCCN(C)C)c(-c3ccccc3)o2)cc1 [Compound 271, N-(2-(Dimethylamino)ethyl)-2-(4-(methylthio)phenyl)-5-phenyloxazole-4-carboxamide]	14%	69%	6.12 µM	3.74 µM	52 at %	45 at %	31%	105%			860 nM				
